Test results: ChEMBL document CHEMBL1201862, “PubChem BioAssay data set” (2004)
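Growth conditions: 96-well plates. Treatment: test compound, 48 hours, 5 concentrations. Analysis: linear interpolation between bracketing concentrations; unreached endpoints set to highest concentration. The concentration for 50% growth inhibition is given as GI50.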 Active and inactive are the calls of the source. No stated cut-off is given here; in the data, active = GI50 up to about 1.1 µM and inactive = higher.

How the values were obtained:
Assay in all cases: NCI tumour cell line growth inhibition, 48 h
IGROV-1 = system: IGROV-1
CAKI-1 = system: CAKI-1
SN12C = system: SN12C
SW-620 = system: SW-620
U-251 = system: U-251
SF-268 = system: SF-268
EKVX = system: EKVX
LOX IMVI = system: LOX IMVI
HL-60 = system: HL-60
K562 = system: K562
OVCAR-3 = system: OVCAR-3
OVCAR-5 = system: OVCAR-5
MCF7 = system: MCF7
OVCAR-8 = system: OVCAR-8
SR = system: SR
HCT-116 = system: HCT-116
A549 = system: A549
Hs-578T = system: Hs-578T
BT-549 = system: BT-549
786-0 = system: 786-0
SF-295 = system: SF-295
SNB-19 = system: SNB-19
PC-3 = system: PC-3
HCT-15 = system: HCT-15
KM12 = system: KM12
MDA-MB-231 = system: MDA-MB-231
CCRF-CEM = system: CCRF-CEM
SK-MEL-28 = system: SK-MEL-28
DU-145 = system: DU-145
UACC-62 = system: UACC-62
NCI-H460 = system: NCI-H460
SK-MEL-2 = system: SK-MEL-2
NCI-H522 = system: NCI-H522
UO-31 = system: UO-31
SK-OV-3 = system: SK-OV-3
A498 = system: A498
NCI-H23 = system: NCI-H23
TK-10 = system: TK-10
SNB-75 = system: SNB-75
RPMI-8226 = system: RPMI-8226
SF-539 = system: SF-539
NCI/ADR-RES = system: NCI/ADR-RES
ACHN = system: ACHN
SK-MEL-5 = system: SK-MEL-5
UACC-257 = system: UACC-257
HOP-62 = system: HOP-62
T47D = system: T47D
MOLT-4 = system: MOLT-4
MDA-MB-435 = system: MDA-MB-435
NCI-H226 = system: NCI-H226
M14 = system: M14
HT-29 = system: HT-29
COLO 205 = system: COLO 205
OVCAR-4 = system: OVCAR-4
MDA-N = system: MDA-N

## COc1cc([N+](=O)[O-])c(S(=O)(=O)O)cc1NS(=O)(=O)c1ccc(C)cc1
IGROV-1
  GI50: > 100 µM (inactive)
CAKI-1
  GI50: > 100 µM (inactive)
SN12C
  GI50: > 100 µM (inactive)
SW-620
  GI50: > 100 µM (inactive)
U-251
  GI50: > 100 µM (inactive)
SF-268
  GI50: > 100 µM (inactive)
EKVX
  GI50: > 100 µM (inactive)
LOX IMVI
  GI50: > 100 µM (inactive)
HL-60
  GI50: > 100 µM (inactive)
K562
  GI50: > 100 µM (inactive)
OVCAR-3
  GI50: > 100 µM (inactive)
OVCAR-5
  GI50: > 100 µM (inactive)
MCF7
  GI50: > 100 µM (inactive)
OVCAR-8
  GI50: > 100 µM (inactive)
SR
  GI50: > 100 µM (inactive)
HCT-116
  GI50: > 100 µM (inactive)
A549
  GI50: > 100 µM (inactive)
Hs-578T
  GI50: > 100 µM (inactive)
BT-549
  GI50: > 100 µM (inactive)
786-0
  GI50: > 100 µM (inactive)
SF-295
  GI50: > 100 µM (inactive)
SNB-19
  GI50: > 100 µM (inactive)
PC-3
  GI50: > 100 µM (inactive)
HCT-15
  GI50: > 100 µM
KM12
  GI50: > 100 µM (inactive)
MDA-MB-231
  GI50: > 100 µM (inactive)
CCRF-CEM
  GI50: > 100 µM (inactive)
SK-MEL-28
  GI50: > 100 µM (inactive)
DU-145
  GI50: > 100 µM (inactive)
UACC-62
  GI50: > 100 µM (inactive)
NCI-H460
  GI50: > 100 µM (inactive)
SK-MEL-2
  GI50: > 100 µM (inactive)
NCI-H522
  GI50: > 100 µM (inactive)
UO-31
  GI50: > 100 µM (inactive)
SK-OV-3
  GI50: > 100 µM (inactive)
A498
  GI50: > 100 µM (inactive)
NCI-H23
  GI50: > 100 µM (inactive)
TK-10
  GI50: > 100 µM (inactive)
SNB-75
  GI50: > 100 µM (inactive)
RPMI-8226
  GI50: > 100 µM (inactive)
SF-539
  GI50: > 100 µM (inactive)
NCI/ADR-RES
  GI50: > 100 µM (inactive)
ACHN
  GI50: > 100 µM (inactive)
SK-MEL-5
  GI50: > 100 µM (inactive)
UACC-257
  GI50: > 100 µM (inactive)
HOP-62
  GI50: > 100 µM (inactive)
T47D
  GI50: > 100 µM (inactive)
MOLT-4
  GI50: > 100 µM (inactive)
MDA-MB-435
  GI50: > 100 µM (inactive)
NCI-H226
  GI50: > 100 µM (inactive)
M14
  GI50: > 100 µM (inactive)
HT-29
  GI50: > 100 µM (inactive)
COLO 205
  GI50: > 100 µM (inactive)
OVCAR-4
  GI50: > 100 µM (inactive)
MDA-N
  GI50: > 100 µM (inactive)
